From PMC10303271, “Synthesis and Receptor Binding Studies of α5 GABAAR Selective Novel Imidazodiazepines Targeted for Psychiatric and Cognitive Disorders” (Molecules, 2023)

Key:
[1] = molecular target: kappa opioid receptors (KOR) (Homo sapiens, UniProt P41145); assay: PDSP radioligand binding at KOR; settings: for inhibition at 10 µM: 1.5 h, at 10,000 nM, N = 5, [3H]-U69593 0.83 nM, read-out: Primary Binding %KOR
From the text: (§1) Opioid receptors are a family of inhibitory G-coupled protein receptors where opioids act as the ligand. The kappa opioid receptors (KOR), µ and δ opioid receptors (MOR and DOR), and nociception opioid receptor (NOP) fall under the family of opioids receptors. It has been reported that oxadiazole imidazodiazepines can mediate analgesic and anti-inflammatory properties mediated also by the κ opioid receptor (KOR). The binding at KOR is usually silent. The affinities of the test compounds for KOR, DOR, and MOR were determined using radioligand binding assays at a screening concentration of 10,000 nM in collaboration with the National Institute of Mental Health’s Psychoactive Drug Screening Program (PDSP), as mentioned before. Concentration-dependent experiments were conducted to determine Ki values for the compounds that exceeded more than 50% radioligand displacement in primary binding assays.
(§2) The NIMH PDSP assay protocol book [https://kidbdev.med.unc.edu/databases/PDSP%20Protocols%20II%202013-03-28.pdf accessed on 23 April 2023]. describes the protocols for primary and secondary radio-ligand binding assays. These assays were carried out in a final volume of 125 µL per well in the appropriate binding buffer.
(§3) The binding of a ligand to a receptor, ion channel, or transporter was determined in the […] of 10 µM of the appropriate reference compound. […] Plates were incubated in the dark for 90 min at rt, and the reactions were stopped by vacuum filtration onto 0.3% polyethyleneimine (PEI) soaked 96-well filter mats using a 96-well Filtermateharvester. This was followed by three washes with cold PBS buffer. Radioactivity was then counted on a Microbeta counter. Nonlinear regression was used to analyze the data with N = 6 replicates.

[2] = molecular target: T1, DOR (Homo sapiens, UniProt P41143); assay: PDSP radioligand binding at DOR; settings: at 10,000 nM; N = 5; [3H]-DADLE 2.69 nM; read-out: Primary Binding %DOR
T1 construct: purchased NIMH Psychoactive Drug Screening Program (PDSP)
T1 sequence (P41143 whole entry): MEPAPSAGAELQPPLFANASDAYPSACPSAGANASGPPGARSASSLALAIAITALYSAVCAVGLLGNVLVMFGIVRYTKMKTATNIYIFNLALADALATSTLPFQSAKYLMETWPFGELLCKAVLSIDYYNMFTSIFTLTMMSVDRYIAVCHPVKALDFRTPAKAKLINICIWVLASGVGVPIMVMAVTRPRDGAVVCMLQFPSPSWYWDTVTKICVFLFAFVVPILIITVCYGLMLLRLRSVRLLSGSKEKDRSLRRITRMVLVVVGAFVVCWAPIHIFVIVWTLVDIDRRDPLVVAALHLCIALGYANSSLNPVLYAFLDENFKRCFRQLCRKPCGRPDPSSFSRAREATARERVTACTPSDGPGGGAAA
From the text: as §1, §2, §3

[3] = molecular target: T2, MOR (Homo sapiens, UniProt P35372); assay: PDSP radioligand binding at MOR; settings: 1.5 h; at 10,000 nM; N = 5; [3H]-DAMGO 1.20 nM; read-out: Primary Binding %MOR
T2 construct: purchased NIMH Psychoactive Drug Screening Program (PDSP)
T2 sequence (P35372 whole entry): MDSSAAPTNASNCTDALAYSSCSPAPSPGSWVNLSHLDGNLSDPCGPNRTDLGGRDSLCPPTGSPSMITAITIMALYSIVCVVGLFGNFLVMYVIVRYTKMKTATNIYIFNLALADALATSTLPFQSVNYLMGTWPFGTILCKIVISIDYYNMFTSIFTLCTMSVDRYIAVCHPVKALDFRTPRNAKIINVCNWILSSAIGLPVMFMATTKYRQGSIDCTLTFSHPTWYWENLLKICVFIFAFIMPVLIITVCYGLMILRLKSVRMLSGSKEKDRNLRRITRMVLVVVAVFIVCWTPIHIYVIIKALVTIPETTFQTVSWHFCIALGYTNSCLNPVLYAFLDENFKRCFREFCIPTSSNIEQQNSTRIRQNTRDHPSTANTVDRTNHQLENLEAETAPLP
From the text: as §1, §2, §3

[4] = set-up: method as in PMID 35266641, PMID 36712569, doi:10.1016/j.euroneuro.2019.09.268; settings: autism, antipsychotic activity, cognitive disorders; cited from earlier work

kappa opioid receptors (KOR), sequence (P41145 whole entry): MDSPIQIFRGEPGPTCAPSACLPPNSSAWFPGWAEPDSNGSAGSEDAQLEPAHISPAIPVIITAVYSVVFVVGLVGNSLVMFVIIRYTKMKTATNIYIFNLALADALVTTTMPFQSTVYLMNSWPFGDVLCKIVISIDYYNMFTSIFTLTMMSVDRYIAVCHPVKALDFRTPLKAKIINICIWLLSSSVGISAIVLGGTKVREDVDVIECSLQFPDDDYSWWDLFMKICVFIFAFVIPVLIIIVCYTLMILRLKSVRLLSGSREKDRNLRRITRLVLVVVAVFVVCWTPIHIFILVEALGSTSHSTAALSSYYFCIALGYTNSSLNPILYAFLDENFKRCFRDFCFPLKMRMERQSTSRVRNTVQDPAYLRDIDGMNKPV

| SMILES | Ki [1] [nM] | inhibition at 10 µM [1] [%] | inhibition at 10 µM [2] [%] | inhibition at 10 µM [3] [%] | activity in psychiatric disorders [4] |
| --- | --- | --- | --- | --- | --- |
| C[C@H]1N=C(c2ccccc2F)c2cc(Cl)ccc2-n2cnc(C(=O)N(C)C)c21 [Compound 32, (R)-8-Chloro-6-(2′-fluorophenyl)-N,N,4-trimethyl-4H-benzo[f]imidazo[1,5-a][1,4]diazepine-3-carboxamide] | 731 ± 238 | 81.4 ± 7.52 | 14.4 ± 7.98 | 11.2 ± 5.47 |  |
| CCc1noc(-c2ncn3c2[C@@H](C)N=C(c2ccccc2F)c2cc(C4CC4)ccc2-3)n1 [Compound 47] | 248 ± 22.6 | 91.3 ± 3.06 | 67.3 ± 7.84 | 25.1 ± 12.8 |  |
| C#Cc1ccc2c(c1)C(c1ccccc1F)=N[C@H](C)c1c(C(=O)NC)ncn1-2 [MP-III-022] |  |  |  |  | active in low doses |
